Data reported in patent publication US20210405030A1, “MEANS AND METHODS FOR DETERMINING METABOLIC ADAPTATION” (EnFin GmbH, priority 2018, published 2021).
Where two headings read alike, the source gives them in different places. Square brackets hold non-standard residues; d marks the D form. Ends that are not written are not given here. pY = N[C@@H](Cc1ccc(OP(=O)(O)O)cc1)C(=O)O

Tests used:
[1] = system: Healthy blood donor mononuclear lymphocytes; conditions: for Blood test result: reference interval 2.0±0.3
Text: The cellular model used herein discriminates between an immuno activating environment and an immune suppressive environment. An immuno activating environment comprises supplementation of growth factors/serum and allows growth and survival of blood derived immune cells. An immuno suppressive environment comprises deprivation of growth factors/serum (starvation) and diminishes growth and survival of blood derived immune cells. […] In both conditions a switch to anaerobic glycolysis was induced pharmacologically and proliferation and survival of immune cells was compared to unmodified immune cells.
Healthy blood donor mononuclear lymphocytes were cultured under normoxia (21%) and anoxia (0%). Enzyme activities of PK low affinity (PK la), PK high affinity (PK ha) and Lactate dehydrogenase (LDH) were measured in the homogenates.

[2] = system: PBMCs; assay: Proliferation and survival of PBMCs in immuno activating (10% FCS) or immuno suppressive (starvation) environment (FIG. 1); type: cell-based, human; conditions: for proliferation and survival: GM-CSF 20 ng/ml, HMGB1 variants 200 nM
Experimental: FIG. 1: Proliferation of PBMCs under the indicated conditions; P-M2 tide: induction of glycolysis by incubation with P-M2 tide; A) control (no activator compound); B) hGM-CSF added; C) to G) HMGB1 or variant thereof added.
To evaluate to what extent and by which agent anerg immune cells could be stimulated we used recombinant human GM-CSF (20 ng/ml, FIG. 1 B) or recombinant/synthetic variants of the immune system stimulating human HMGB1 cytokine (200 nM, FIG. 1 C-G).

Molecule: GGAVDDD[pY]AQFANGG [P-M2 tide]
- Blood test result ([1]; 10% FCS (immuno activating environment) + P-M2 tide): 0.30
- shift from OXPHOS to anaerobic glycolysis ([1]; ex vivo human immune cells, blocking the PK tetramer): enables immune cells to shift from OXPHOS to anaerobic glycolysis
- Blood test result ([1]; starvation (immune suppressive environment) + P-M2 tide): 1.37

Molecule: GM-CSF: human granulocyte monocyte colony stimulating factor, recombinant
- proliferation and survival ([2]; immuno-suppressed (starved) cells showing a switch to anaerobic glycolysis): fully rescued from cell death and showed increased proliferation (and survival)
- proliferation and survival ([2]; immuno-suppressed (starved) cells with no switch to anaerobic glycolysis): partly rescued

B1: Wildtype human recombinant HMGB1: high mobility group box 1 protein, immuno-stimulating cytokine and DAMP (SEQ ID NO:3) (protein, listed as Homo sapiens)
chain: MGKGDPKKPRGKMSSYAFFVQTCREEHKKKHPDASVNFSEFSKKCSERWKTMSAKEKGKFEDMAKADKARYEREMKTYIPPKGETKKKFKDPNAPKRPPSAFFLFCSEYRPKIKGEHPGLSIGDVAKKLGEMWNNTAADDKQPYEKKAAKLKEKYEKDIAAYRAKGKPDAAKKGVVKAEKSKKKKEEEEDEEDEEDEEEEEDEEDEDEEEDDDDE
- proliferation and survival of immune cells ([2]; 200 nM, condition not further specified): failed to increase proliferation and survival
